pEC50: −log10 of the molar value.

Data set [1] addresses 5-hydroxytryptamine receptor 2C (Homo sapiens) (UniProt P28335). Description: Agonist activity at 5-HT2C receptor (unknown origin) expressed in CHO cells assessed as calcium mobilization at 3 uM. It counts as functional, cell-based. In general terms: Calcium flux is commonly read through the fluorescence of an indicator in the cells.
Data set [2] addresses 5-hydroxytryptamine receptor 1B (Homo sapiens) (UniProt P28222). Kind of data set: Agonist activity at 5-HT1B receptor (unknown origin) expressed in CHO cells assessed as calcium mobilization at 3 uM. The format is functional, cell-based.
For data set [3], the target named is Alpha-1A adrenergic receptor (Homo sapiens) (UniProt P35348). Kind of data set: Binding affinity to adrenergic alpha1A receptor (unknown origin) at 3 uM by radioligand-binding assay.
Chain of Alpha-1A adrenergic receptor (Homo sapiens) (P35348 whole entry): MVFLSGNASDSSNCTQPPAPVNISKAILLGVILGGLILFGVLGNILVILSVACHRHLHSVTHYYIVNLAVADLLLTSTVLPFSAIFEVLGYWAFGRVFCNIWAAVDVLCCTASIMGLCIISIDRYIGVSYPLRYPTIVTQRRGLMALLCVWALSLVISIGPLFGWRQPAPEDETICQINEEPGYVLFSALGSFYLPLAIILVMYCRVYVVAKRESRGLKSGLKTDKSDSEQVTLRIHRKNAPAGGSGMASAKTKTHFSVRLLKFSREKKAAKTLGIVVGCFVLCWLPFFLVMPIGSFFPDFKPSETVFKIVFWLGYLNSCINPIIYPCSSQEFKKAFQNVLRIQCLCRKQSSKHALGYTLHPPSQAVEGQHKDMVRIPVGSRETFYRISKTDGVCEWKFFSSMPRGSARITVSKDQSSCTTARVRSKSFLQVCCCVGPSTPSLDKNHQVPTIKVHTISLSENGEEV
For data set [4], the target named is Histamine H1 receptor (Homo sapiens) (UniProt P35367). Description: Binding affinity to histamine H1 receptor (unknown origin) at 3 uM by radioligand-binding assay.
Chain of Histamine H1 receptor (Homo sapiens) (P35367 whole entry): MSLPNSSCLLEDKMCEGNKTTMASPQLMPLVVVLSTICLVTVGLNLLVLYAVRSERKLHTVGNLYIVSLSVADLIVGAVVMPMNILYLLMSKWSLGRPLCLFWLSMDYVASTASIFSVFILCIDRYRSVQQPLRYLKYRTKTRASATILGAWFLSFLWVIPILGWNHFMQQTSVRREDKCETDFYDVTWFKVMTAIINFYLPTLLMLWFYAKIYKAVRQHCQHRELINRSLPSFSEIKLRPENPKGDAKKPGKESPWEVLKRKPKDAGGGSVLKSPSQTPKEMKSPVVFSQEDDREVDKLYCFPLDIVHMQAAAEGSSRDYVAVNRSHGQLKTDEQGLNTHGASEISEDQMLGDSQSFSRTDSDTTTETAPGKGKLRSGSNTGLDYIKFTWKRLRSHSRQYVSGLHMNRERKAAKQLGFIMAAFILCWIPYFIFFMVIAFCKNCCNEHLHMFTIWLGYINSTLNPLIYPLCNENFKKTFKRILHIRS
For data set [5], the target named is 5-hydroxytryptamine receptor 2B (Homo sapiens) (UniProt P41595). Kind of data set: Agonist activity at 5-HT2B receptor (unknown origin) expressed in CHO cells assessed as calcium mobilization at 3 uM. The format is functional, cell-based.
Chain of 5-hydroxytryptamine receptor 2B (Homo sapiens) (P41595 whole entry): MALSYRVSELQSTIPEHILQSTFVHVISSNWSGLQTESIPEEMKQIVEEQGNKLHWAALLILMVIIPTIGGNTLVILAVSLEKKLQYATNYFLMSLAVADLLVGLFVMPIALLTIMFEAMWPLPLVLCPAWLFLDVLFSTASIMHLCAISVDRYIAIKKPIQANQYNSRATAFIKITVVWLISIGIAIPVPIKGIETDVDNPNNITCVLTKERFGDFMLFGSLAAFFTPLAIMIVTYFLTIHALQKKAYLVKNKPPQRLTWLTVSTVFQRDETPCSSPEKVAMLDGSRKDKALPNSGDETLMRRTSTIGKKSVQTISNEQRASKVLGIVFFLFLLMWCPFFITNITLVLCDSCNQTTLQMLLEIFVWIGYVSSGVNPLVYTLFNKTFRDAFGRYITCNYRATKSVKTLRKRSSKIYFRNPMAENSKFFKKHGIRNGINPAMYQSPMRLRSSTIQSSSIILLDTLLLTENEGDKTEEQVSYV
For data set [6], the target named is T1, Muscarinic acetylcholine receptor M1 (Homo sapiens) (UniProt P11229).
T1 sequence (whole entry): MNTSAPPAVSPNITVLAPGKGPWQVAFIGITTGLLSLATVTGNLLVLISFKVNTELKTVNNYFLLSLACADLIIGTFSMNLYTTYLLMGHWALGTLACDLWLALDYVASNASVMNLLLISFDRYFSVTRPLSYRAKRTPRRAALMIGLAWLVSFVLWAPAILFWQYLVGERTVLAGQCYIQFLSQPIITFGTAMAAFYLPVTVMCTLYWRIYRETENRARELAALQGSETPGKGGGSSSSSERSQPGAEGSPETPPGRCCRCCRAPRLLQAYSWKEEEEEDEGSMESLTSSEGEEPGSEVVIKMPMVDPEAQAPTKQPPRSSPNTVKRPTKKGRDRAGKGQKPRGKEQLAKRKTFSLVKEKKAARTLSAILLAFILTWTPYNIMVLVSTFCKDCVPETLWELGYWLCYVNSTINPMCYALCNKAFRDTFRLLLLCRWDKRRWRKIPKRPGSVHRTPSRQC
Description: Agonist activity at human muscarinic M1 acetylcholine receptor expressed in CHO cells assessed as calcium mobilization by FLIPR assay relative to control. The format is functional, cell-based.

For data set [7], the target named is Alpha-2B adrenergic receptor (Homo sapiens) (UniProt P18089). Description: Agonist activity at adrenergic a2B receptor (unknown origin) expressed in CHO cells assessed as calcium mobilization at 3 uM. The format is functional, cell-based.
Chain of Alpha-2B adrenergic receptor (Homo sapiens) (P18089 whole entry): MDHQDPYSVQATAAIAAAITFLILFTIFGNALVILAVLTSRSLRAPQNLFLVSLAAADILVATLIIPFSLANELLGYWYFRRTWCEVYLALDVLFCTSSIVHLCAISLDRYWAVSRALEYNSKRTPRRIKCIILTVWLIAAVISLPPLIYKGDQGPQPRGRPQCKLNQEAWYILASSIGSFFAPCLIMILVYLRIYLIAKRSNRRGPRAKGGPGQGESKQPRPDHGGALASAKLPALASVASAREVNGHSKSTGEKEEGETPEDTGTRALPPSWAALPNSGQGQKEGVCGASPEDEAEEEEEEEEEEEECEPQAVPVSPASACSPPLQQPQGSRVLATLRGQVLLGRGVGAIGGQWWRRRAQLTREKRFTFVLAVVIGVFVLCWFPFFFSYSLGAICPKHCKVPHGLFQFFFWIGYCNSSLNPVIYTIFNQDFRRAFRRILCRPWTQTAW
Data set [8] deals with Nuclear receptor subfamily 1 group I member 2 (Homo sapiens, UniProt O75469). Description: Induction of human PXR. The format is ADME.
For data set [9], the target named is Muscarinic acetylcholine receptor M3 (Homo sapiens) (UniProt P20309). Description: Agonist activity at human muscarinic M3 acetylcholine receptor expressed in CHO cells assessed as calcium mobilization at 30 uM by FLIPR assay. The format is functional, cell-based.
Chain of Muscarinic acetylcholine receptor M3 (Homo sapiens) (P20309 whole entry, looked up): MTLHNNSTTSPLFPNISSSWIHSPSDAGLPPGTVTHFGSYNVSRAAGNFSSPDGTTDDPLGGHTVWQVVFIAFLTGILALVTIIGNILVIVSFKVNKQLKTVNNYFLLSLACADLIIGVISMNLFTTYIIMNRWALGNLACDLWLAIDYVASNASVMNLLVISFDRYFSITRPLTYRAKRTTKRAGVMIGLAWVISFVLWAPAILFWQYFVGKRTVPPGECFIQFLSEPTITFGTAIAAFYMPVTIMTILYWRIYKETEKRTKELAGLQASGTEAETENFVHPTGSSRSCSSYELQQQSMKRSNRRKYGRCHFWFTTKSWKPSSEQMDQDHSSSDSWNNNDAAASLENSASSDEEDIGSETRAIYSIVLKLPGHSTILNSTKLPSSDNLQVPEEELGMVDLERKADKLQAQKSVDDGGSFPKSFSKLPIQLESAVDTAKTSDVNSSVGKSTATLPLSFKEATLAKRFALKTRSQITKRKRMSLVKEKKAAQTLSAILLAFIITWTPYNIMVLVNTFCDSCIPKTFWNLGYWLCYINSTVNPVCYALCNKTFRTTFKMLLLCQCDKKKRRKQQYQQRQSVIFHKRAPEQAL
Data set [10] has as its target 5-hydroxytryptamine receptor 1E (Homo sapiens) (UniProt P28566). Description: Agonist activity at 5-HT1E receptor (unknown origin) expressed in CHO cells assessed as calcium mobilization at 3 uM. The format is functional, cell-based.
Data set [11] concerns the target Neuropeptide Y receptor type 2 (Homo sapiens) (UniProt P49146). Kind of data set: Agonist activity at NPY2 receptor (unknown origin) expressed in CHO cells assessed as calcium mobilization at 3 uM. The format is functional, cell-based.
For data set [12], the target named is D(3) dopamine receptor (Homo sapiens) (UniProt P35462). Kind of data set: Agonist activity at dopamine D3L receptor (unknown origin) expressed in CHO cells assessed as calcium mobilization at 3 uM. It counts as functional, cell-based.
Chain of D(3) dopamine receptor (Homo sapiens) (P35462 whole entry): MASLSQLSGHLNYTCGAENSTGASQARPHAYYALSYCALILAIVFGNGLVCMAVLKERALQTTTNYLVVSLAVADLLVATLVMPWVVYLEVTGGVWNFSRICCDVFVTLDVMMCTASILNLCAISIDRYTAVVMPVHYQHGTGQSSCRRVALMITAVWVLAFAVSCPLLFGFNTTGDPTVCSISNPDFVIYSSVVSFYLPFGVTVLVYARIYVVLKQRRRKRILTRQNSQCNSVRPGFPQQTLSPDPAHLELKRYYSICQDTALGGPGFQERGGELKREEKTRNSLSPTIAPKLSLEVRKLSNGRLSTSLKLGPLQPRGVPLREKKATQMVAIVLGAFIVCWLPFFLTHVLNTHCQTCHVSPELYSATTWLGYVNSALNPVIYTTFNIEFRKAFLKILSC
In data set [13] the target is Alpha-2A adrenergic receptor (Homo sapiens) (UniProt P08913). Description: Agonist activity at adrenergic a2a receptor (unknown origin) expressed in CHO cells assessed as calcium mobilization at 3 uM. It counts as functional, cell-based.
Data set [14] deals with D(4) dopamine receptor (Homo sapiens) (UniProt P21917). Kind of data set: Antagonist activity at dopamine D4 receptor (unknown origin) expressed in CHO cells assessed as calcium mobilization at 3 uM. The format is functional, cell-based.
Chain of D(4) dopamine receptor (Homo sapiens) (P21917 whole entry): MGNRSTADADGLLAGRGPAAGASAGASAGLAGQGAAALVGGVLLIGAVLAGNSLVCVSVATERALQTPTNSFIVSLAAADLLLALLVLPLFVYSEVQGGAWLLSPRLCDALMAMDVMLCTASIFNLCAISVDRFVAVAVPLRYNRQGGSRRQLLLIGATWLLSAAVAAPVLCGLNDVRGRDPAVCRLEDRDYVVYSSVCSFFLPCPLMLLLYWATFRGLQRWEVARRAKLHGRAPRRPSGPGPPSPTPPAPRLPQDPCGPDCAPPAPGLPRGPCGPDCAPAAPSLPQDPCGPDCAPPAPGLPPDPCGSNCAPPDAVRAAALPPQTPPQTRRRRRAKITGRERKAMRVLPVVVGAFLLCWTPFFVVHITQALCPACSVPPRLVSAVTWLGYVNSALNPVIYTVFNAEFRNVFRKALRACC
For data set [15], the target named is Muscarinic acetylcholine receptor M3 (Homo sapiens) (UniProt P20309). Kind of data set: Agonist activity at human muscarinic M3 acetylcholine receptor expressed in CHO cells assessed as calcium mobilization at 0.3 uM by FLIPR assay. It counts as functional, cell-based.
For data set [16], the target named is Adenosine receptor A1 (Homo sapiens) (UniProt P30542). Description: Agonist activity at adenosine a1 receptor (unknown origin) expressed in CHO cells assessed as calcium mobilization at 3 uM. It counts as functional, cell-based.
For data set [17], the target named is Histamine H2 receptor (Homo sapiens) (UniProt P25021). Kind of data set: Antagonist activity at histamine H2 receptor (unknown origin) expressed in CHO cells assessed as calcium mobilization at 3 uM. The format is functional, cell-based.
Chain of Histamine H2 receptor (Homo sapiens) (P25021 whole entry): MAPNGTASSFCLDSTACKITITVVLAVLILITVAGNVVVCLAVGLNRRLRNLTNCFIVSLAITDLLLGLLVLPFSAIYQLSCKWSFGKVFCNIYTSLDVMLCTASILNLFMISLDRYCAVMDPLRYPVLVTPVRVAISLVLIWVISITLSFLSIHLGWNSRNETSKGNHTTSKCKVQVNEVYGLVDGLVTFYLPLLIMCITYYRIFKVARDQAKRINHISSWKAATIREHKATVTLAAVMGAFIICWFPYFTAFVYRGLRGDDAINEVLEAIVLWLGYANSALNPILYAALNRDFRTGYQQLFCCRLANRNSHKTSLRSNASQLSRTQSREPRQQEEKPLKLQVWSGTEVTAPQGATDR
Data set [18] concerns the target Muscarinic acetylcholine receptor M1 (Homo sapiens, UniProt P11229). Kind of data set: Agonist activity at human muscarinic M1 acetylcholine receptor expressed in CHO cells assessed as calcium mobilization by FLIPR assay. The format is functional, cell-based.
The target of data set [19] is Cysteinyl leukotriene receptor 1 (Homo sapiens) (UniProt Q9Y271). Kind of data set: Antagonist activity at CysLT1 receptor (unknown origin) expressed in CHO cells assessed as calcium mobilization at 3 uM. The format is functional, cell-based.
Chain of Cysteinyl leukotriene receptor 1 (Homo sapiens) (Q9Y271 whole entry): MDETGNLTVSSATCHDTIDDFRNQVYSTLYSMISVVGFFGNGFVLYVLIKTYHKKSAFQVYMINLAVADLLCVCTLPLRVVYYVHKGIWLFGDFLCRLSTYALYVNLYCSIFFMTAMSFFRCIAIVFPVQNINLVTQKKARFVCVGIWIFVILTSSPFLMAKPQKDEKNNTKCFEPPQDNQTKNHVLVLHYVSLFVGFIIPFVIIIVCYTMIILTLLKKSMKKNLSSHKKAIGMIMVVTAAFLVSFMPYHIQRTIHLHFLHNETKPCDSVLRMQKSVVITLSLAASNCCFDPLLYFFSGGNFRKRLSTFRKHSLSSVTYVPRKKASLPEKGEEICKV
Data set [20] deals with T2, Muscarinic acetylcholine receptor M4 (Homo sapiens) (UniProt P08173).
T2 sequence (whole entry): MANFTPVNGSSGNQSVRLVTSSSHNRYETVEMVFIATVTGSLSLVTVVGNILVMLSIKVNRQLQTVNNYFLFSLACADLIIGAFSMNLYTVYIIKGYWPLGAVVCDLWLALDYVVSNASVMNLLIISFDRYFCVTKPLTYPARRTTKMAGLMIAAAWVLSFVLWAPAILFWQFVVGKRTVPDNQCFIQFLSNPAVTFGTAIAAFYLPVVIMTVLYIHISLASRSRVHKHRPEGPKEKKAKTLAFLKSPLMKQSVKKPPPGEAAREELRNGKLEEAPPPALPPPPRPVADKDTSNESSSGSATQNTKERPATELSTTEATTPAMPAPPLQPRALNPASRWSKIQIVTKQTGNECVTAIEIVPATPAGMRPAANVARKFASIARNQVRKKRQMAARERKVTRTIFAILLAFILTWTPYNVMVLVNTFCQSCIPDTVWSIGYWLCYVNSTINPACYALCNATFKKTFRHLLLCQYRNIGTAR
Description: Partial agonist activity at human muscarinic M4 acetylcholine receptor expressed in CHO cells co-expressing Galpha16 assessed as calcium mobilization by FLIPR assay relative to control. It counts as functional, cell-based.

Chain of 5-hydroxytryptamine receptor 2C (Homo sapiens) (P28335 whole entry): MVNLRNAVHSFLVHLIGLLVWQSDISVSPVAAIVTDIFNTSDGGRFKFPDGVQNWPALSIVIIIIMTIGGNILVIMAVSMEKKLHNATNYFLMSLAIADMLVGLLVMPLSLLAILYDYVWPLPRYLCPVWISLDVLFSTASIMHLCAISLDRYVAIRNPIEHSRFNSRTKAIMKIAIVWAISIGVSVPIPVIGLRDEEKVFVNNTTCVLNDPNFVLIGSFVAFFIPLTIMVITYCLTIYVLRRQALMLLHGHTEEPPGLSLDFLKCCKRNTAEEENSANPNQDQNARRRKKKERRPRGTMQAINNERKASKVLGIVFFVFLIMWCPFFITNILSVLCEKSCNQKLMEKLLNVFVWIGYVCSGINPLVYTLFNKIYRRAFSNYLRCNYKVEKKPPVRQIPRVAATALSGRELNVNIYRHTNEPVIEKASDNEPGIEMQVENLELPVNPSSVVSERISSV
Chain of 5-hydroxytryptamine receptor 1B (Homo sapiens) (P28222 whole entry): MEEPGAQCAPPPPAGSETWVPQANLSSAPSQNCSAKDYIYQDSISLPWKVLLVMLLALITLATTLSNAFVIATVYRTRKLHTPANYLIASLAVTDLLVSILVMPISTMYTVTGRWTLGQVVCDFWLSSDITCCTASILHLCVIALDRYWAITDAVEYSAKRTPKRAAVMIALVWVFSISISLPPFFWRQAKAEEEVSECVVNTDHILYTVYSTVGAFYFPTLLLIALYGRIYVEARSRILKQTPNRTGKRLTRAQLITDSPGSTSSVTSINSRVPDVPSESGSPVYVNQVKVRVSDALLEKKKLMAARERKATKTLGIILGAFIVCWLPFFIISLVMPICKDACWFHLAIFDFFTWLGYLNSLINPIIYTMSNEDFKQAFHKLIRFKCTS

Take `CCOC(=O)N1[C@@H]2CC[C@H]1C[C@H](CN1CC[C@@H](N3Cc4ccccc4NC3=O)C1)C2`: the Activity in [1] is 0.22%; in data set [2], -1.26%; in data set [5], -0.03%; in [6], 84%; in [7], -0.18%; in data set [8] it was “Not Active”. Besides, the Activity is 2% in [9]; 0.11% in [10]; 1.73% in [11]; -2.42% in data set [12]; -0.95% in [13]; 2% in [15]. In addition, the Activity in data set [16] is -0.25%; in data set [20], 51%. Further, the inhibition (usually the relative decrease from the control value, in per cent) in [3] was 6%; in data set [4], 6%; in data set [14] it was 11.6%; in data set [17] it was 5.27%; in [19], 0.46%. Besides, the pEC50 (as a rule, −log10 of the EC50, conventionally taken in molar units) in data set [18] is 7.85.

The values above are taken from ChEMBL document CHEMBL3632469, “Discovery of dihydroquinazolinone derivatives as potent, selective, and CNS-penetrant M(1) and M(4) muscarinic acetylcholine receptors agonists” (Bioorg Med Chem Lett, 2015).
